Laboratory results from PubChem BioAssay AID330 (DTP/NCI, 2004).
Where “and” joins values, the source holds several entries; their conditions need not be identical. Equal values may be shown once. Inconclusive results and toxic doses are left out. The calls were made as follows: active = survival T/C of 150% or more; inactive = T/C below 125% in these data. Peptide text beside a SMILES is read from it. * marks the point of attachment. Cbz = O=C(OCc1ccccc1)*

System: P388 leukemia ip, CD2F1 mice, survival T/C
Assay: NCI In Vivo Anticancer Drug Screen. Data for tumor model P388 Leukemia (intraperitoneal) in CD2F1 (CDF1) mice
Settings: endpoint: median survival time, higher = longer survival
Summary of the method: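 Mice carrying the transplanted tumor received test compound or vehicle. Survival was recorded in each group, and the value is the treated-group measurement divided by that of the vehicle-treated control group.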

[1] = dose: 25.0 mg/kg/injection, schedule: Q01DX009 (ip), vehicle: saline with Tween-80
[2] = dose: 50.0 mg/kg/injection, schedule: Q01DX009 (ip), vehicle: saline with Tween-80
[3] = dose: 100.0 mg/kg/injection, schedule: Q01DX009 (ip), vehicle: saline with Tween-80
[4] = dose: 200.0 mg/kg/injection, schedule: Q01DX009 (ip), vehicle: saline with Tween-80
[5] = dose: 12.5 mg/kg/injection, schedule: Q01DX005 (ip), vehicle: saline with Tween-80
[6] = dose: 25.0 mg/kg/injection, schedule: Q01DX005 (ip), vehicle: saline with Tween-80
[7] = dose: 50.0 mg/kg/injection, schedule: Q01DX005 (ip), vehicle: saline with Tween-80
[8] = dose: 100.0 mg/kg/injection, schedule: Q01DX005 (ip), vehicle: saline with Tween-80
[9] = dose: 200.0 mg/kg/injection, schedule: Q01DX005 (ip), vehicle: saline with Tween-80
[10] = dose: 12.5 mg/kg/injection, schedule: Q01DX005 (ip), vehicle: other
[11] = dose: 25.0 mg/kg/injection, schedule: Q01DX005 (ip), vehicle: other
[12] = dose: 50.0 mg/kg/injection, schedule: Q01DX005 (ip), vehicle: other
[13] = dose: 60.0 mg/kg/injection, schedule: Q01DX005 (ip), vehicle: saline with Tween-80

Measured: T/C

CC1(C)N[P+]2(Nc3ccccc3O2)OC1=O (centres undefined)
inactive: dose: 100.0 mg/kg/injection, schedule: Q04DX002 (ip), vehicle: Klucel (hydroxypropylcellulose) (HPC) 97 % of control | dose: 200.0 mg/kg/injection, schedule: Q04DX002 (ip), vehicle: Klucel (hydroxypropylcellulose) (HPC) 93 % of control | dose: 400.0 mg/kg/injection, schedule: Q04DX002 (ip), vehicle: Klucel (hydroxypropylcellulose) (HPC) 87 % of control

CC1=C(CCCCCCCCCCCCCCC(C)O)C(=O)OC1=O (centres undefined)
inactive: dose: 1.56 mg/kg/injection, schedule: Q01DX005 (ip), vehicle: Klucel (hydroxypropylcellulose) (HPC) 108 % of control | dose: 3.12 mg/kg/injection, schedule: Q01DX005 (ip), vehicle: Klucel (hydroxypropylcellulose) (HPC) 108 % of control | dose: 6.25 mg/kg/injection, schedule: Q01DX005 (ip), vehicle: Klucel (hydroxypropylcellulose) (HPC) 99 % of control | dose: 12.5 mg/kg/injection, schedule: Q01DX005 (ip), vehicle: Klucel (hydroxypropylcellulose) (HPC) 99 % of control | dose: 50.0 mg/kg/injection, schedule: Q01DX005 (ip), vehicle: Klucel (hydroxypropylcellulose) (HPC) 89 % of control | dose: 100.0 mg/kg/injection, schedule: Q01DX005 (ip), vehicle: Klucel (hydroxypropylcellulose) (HPC) 92 % of control | dose: 200.0 mg/kg/injection, schedule: Q01DX005 (ip), vehicle: Klucel (hydroxypropylcellulose) (HPC) 101 % of control | dose: 400.0 mg/kg/injection, schedule: Q01DX005 (ip), vehicle: Klucel (hydroxypropylcellulose) (HPC) 87 % of control

CC(=O)Nc1ccc2c(ccc3ccccc32)c1
inactive: [1] 107 % of control | [2] 113 % of control | [3] 118 % of control | [4] 115 % of control

C=COC(=O)C(Cc1ccccc1)NC(=O)OCc1ccccc1 (centres undefined)
inactive: [5] 106 % of control | [6] 100 % of control | [7] 103 % of control | [8] 103 % of control | [9] 100 % of control

Cc1c2oc3c(C)ccc(C(=O)NC(C(=O)NC(C(=O)NN)C(C)C)C(C)O)c3nc-2c(C(=O)NC(C(=O)NC(C(=O)NN)C(C)C)C(C)O)c(N)c1=O (centres undefined)
inactive: dose: 0.05 mg/kg/injection, schedule: Q01DX009 (ip), vehicle: water 106 % of control | dose: 0.1 mg/kg/injection, schedule: Q01DX009 (ip), vehicle: water 107 % of control | dose: 0.2 mg/kg/injection, schedule: Q01DX009 (ip), vehicle: water 97 % of control | dose: 0.4 mg/kg/injection, schedule: Q01DX009 (ip), vehicle: water 101 % of control | dose: 0.8 mg/kg/injection, schedule: Q01DX009 (ip), vehicle: water 101 % of control | dose: 1.6 mg/kg/injection, schedule: Q01DX009 (ip), vehicle: water 108 % of control and 110 % of control | dose: 3.2 mg/kg/injection, schedule: Q01DX009 (ip), vehicle: water 99 % of control | dose: 6.4 mg/kg/injection, schedule: Q01DX009 (ip), vehicle: water 99 % of control | dose: 12.8 mg/kg/injection, schedule: Q01DX009 (ip), vehicle: water 97 % of control

S=c1nc[nH]c2nc(-c3ccccc3)[nH]c12
inactive: [10] 101 % of control | [11] 100 % of control | [12] 101 % of control | dose: 100.0 mg/kg/injection, schedule: Q01DX005 (ip), vehicle: other 92 % of control | dose: 200.0 mg/kg/injection, schedule: Q01DX005 (ip), vehicle: other 92 % of control

O=C(/C=N/O)Nc1ccccc1
inactive: dose: 12.5 mg/kg/injection, schedule: Q01DX009 (ip), vehicle: Klucel (hydroxypropylcellulose) (HPC) 100 % of control and 107 % of control | dose: 25.0 mg/kg/injection, schedule: Q01DX009 (ip), vehicle: Klucel (hydroxypropylcellulose) (HPC) 99 % of control and 100 % of control and 106 % of control | dose: 50.0 mg/kg/injection, schedule: Q01DX009 (ip), vehicle: Klucel (hydroxypropylcellulose) (HPC) 103 % of control and 92 % of control | dose: 100.0 mg/kg/injection, schedule: Q01DX009 (ip), vehicle: Klucel (hydroxypropylcellulose) (HPC) 101 % of control and 109 % of control and 114 % of control

Cc1ccc(S(=O)(=O)c2cncnc2N)cc1
inactive: dose: 100.0 mg/kg/injection, schedule: Q01DX001 (ip), vehicle: saline 101 % of control | dose: 200.0 mg/kg/injection, schedule: Q01DX001 (ip), vehicle: saline 110 % of control | dose: 400.0 mg/kg/injection, schedule: Q01DX001 (ip), vehicle: saline 110 % of control

N#CC1CC=CCN1CCc1ccccc1 (centres undefined)
inactive: [10] 101 % of control | [11] 101 % of control | [12] 111 % of control | dose: 50.0 mg/kg/injection, schedule: Q01DX005 (ip), vehicle: saline + Tween-80 + alcohol 116 % of control

Cc1cccc(NC(=O)CCc2ccc(N3C(N)=NC(N)=NC3(C)C)cc2)c1
inactive: [2] 118 % of control | dose: 50.0 mg/kg/injection, schedule: Q04DX003 (ip), vehicle: saline sonified 118 % of control | dose: 100.0 mg/kg/injection, schedule: Q04DX003 (ip), vehicle: saline sonified 113 % of control | dose: 132.0 mg/kg/injection, schedule: Q01DX009 (ip), vehicle: saline with Tween-80 118 % of control | dose: 200.0 mg/kg/injection, schedule: Q04DX003 (ip), vehicle: saline sonified 118 % of control

N#CCc1ccccc1C#N
inactive: [5] 100 % of control | [6] 99 % of control | [7] 101 % of control

FC(F)(F)C(F)(F)C(F)(F)C(F)(F)C(F)(F)C(F)(F)C[CH2][Sn]([Cl])([Cl])[CH2]CC(F)(F)C(F)(F)C(F)(F)C(F)(F)C(F)(F)C(F)(F)F
inactive: [13] 118 % of control | dose: 120.0 mg/kg/injection, schedule: Q01DX005 (ip), vehicle: saline with Tween-80 119 % of control

Cc1cc([N+](=O)[O-])c(C)c(Br)c1C
inactive: [2] 90 % of control | [3] 92 % of control | [4] 99 % of control

NS(=O)(=O)c1ccc(C(=O)O)s1
inactive: [7] 104 % of control | [8] 100 % of control

CC(C)CC(NC(=O)C(NC(=O)OCc1ccccc1)C(C)C)C(=O)O (stereo not drawn) (Cbz-Val-Leu-OH; configuration not given here)
inactive: [7] 92 % of control | [8] 106 % of control | [9] 111 % of control

O=c1[nH]c(=O)n(C2OC(CO)C(O)C2O)c(=O)[nH]1 (centres undefined)
inactive: dose: 60.0 mg/kg/injection, schedule: Q01DX005 (ip), vehicle: saline 100 % of control | dose: 120.0 mg/kg/injection, schedule: Q01DX005 (ip), vehicle: saline 95 % of control | dose: 240.0 mg/kg/injection, schedule: Q01DX005 (ip), vehicle: saline 96 % of control

C=c1cc2c(cc1=C)C(=O)c1ccccc1C2=O
inactive: dose: 15.0 mg/kg/injection, schedule: Q01DX005 (ip), vehicle: saline with Tween-80 89 % of control | dose: 30.0 mg/kg/injection, schedule: Q01DX005 (ip), vehicle: saline with Tween-80 90 % of control | [13] 86 % of control and 91 % of control | dose: 240.0 mg/kg/injection, schedule: Q01DX005 (ip), vehicle: saline with Tween-80 89 % of control

CCN(CC)Cc1cc(C(CC(=O)c2ccccc2)S(=O)(=O)c2ccc(C)cc2)ccc1O (centres undefined)
inactive: dose: 12.5 mg/kg/injection, schedule: Q01DX009 (ip), vehicle: saline with Tween-80 88 % of control | [1] 89 % of control | dose: 50.0 mg/kg/injection, schedule: Q01DX009 (ip), vehicle: saline 93 % of control

O=C(O)CCC12CCCCC1=NC1(CCCCC1)NC2=O (centres undefined)
inactive: dose: 60.0 mg/kg/injection, schedule: Q01DX005 (ip), vehicle: Klucel (hydroxypropylcellulose) (HPC) 104 % of control | dose: 60.0 mg/kg/injection, schedule: Q02DX002 (ip), vehicle: Klucel (hydroxypropylcellulose) (HPC) 102 % of control | dose: 120.0 mg/kg/injection, schedule: Q01DX005 (ip), vehicle: Klucel (hydroxypropylcellulose) (HPC) 100 % of control | dose: 120.0 mg/kg/injection, schedule: Q02DX002 (ip), vehicle: Klucel (hydroxypropylcellulose) (HPC) 97 % of control | dose: 240.0 mg/kg/injection, schedule: Q01DX005 (ip), vehicle: Klucel (hydroxypropylcellulose) (HPC) 100 % of control | dose: 240.0 mg/kg/injection, schedule: Q02DX002 (ip), vehicle: Klucel (hydroxypropylcellulose) (HPC) 103 % of control
